Measurements published in the OPERA property sets (Mansouri et al. 2018).
Peptide text beside a SMILES is read from it.

SMILES	logP
ON=Cc1ccccc1	1.85
CCOCc1ccccc1NC(=O)OCCN1CCCCC1	2.72
O=[N+]([O-])c1ccc(N=C=S)cc1	3.62
CCC(=O)C(CS(=O)(=O)c1ccccc1)c1ccc(OC)cc1 (centres undefined)	2.18
CCC(=O)C1(c2cccc(OC(=O)OCC(C)C)c2)CCN(C)CC1	2.38
CCOC(=O)NC	0.34
c1ccc(-c2cc3ccccn3c2)cc1	4.29
COC(=O)c1ccccn1	0.36
CCN1CCN(C(=O)NC(C(=O)NC2C(=O)N3C(C(=O)O)=C(CSc4nnnn4C)CSC23)c2ccc(O)cc2)C(=O)C1=O (centres undefined)	-0.74
NC(=S)N1CCCCC1	0.73
C=CCC1(C(C)CC)C(=O)NC(=O)NC1=O (centres undefined)	1.47
CCCN(CCC)C(=O)SCC	3.21
Oc1cc(Cl)c(Cl)c(Cl)c1	4.01
N#CCN	-1.37
CN(C)c1ccc(C#N)cc1	2.2
CN(C)c1cccnc1	1.41
Clc1cc(Cl)c(-c2ccccc2)c(Cl)c1	5.47
CC(C)(C)c1cccc(C(C)(C)C)c1O	4.92
CCCCNc1nc(NCC)nc(SC(F)F)n1	4.51
CCc1ccc(C(=O)OCCN(C)C)cc1	3.15
C/N=C(\N)NC#N	-0.77
CC(C)CCO[N+](=O)[O-]	2.84
C#CC	0.94
CCCCCCCN(C)/N=N/c1ccc(C(N)=O)cc1	4.2
O=S(=O)(Cc1ccccc1)c1ccccc1	2.05

SMILES	logP
Nc1ccc(S(=O)(=O)Nc2ccc(S(N)(=O)=O)cc2)cc1	0.35
CCCC(=NOCC)C1C(=O)CC2(CCCCC2)OC1=O (centres undefined)	3.62
Cc1onc(-c2ccccc2)c1C(=O)NC1C(=O)N2C1SC(C)(C)C2C(=O)O (centres undefined)	2.38
Cc1ccccc1C(=O)Nc1cccc(OC(C)C)c1	3.66
CCc1ccccc1S(I)=C(N(C)C)N(C)C (centres undefined)	0.32
CN(C=O)c1ccccc1	1.09
Nc1ccncc1	0.32
CCNC(=O)c1[nH]nc(C)c1[N+](=O)[O-]	0.13
OCCCCc1ccccn1	0.86
c1nnn[nH]1	-0.6
COc1ccc(C(=O)O)cc1	1.96
C=CBr	1.57
CC1CCCC(C)N1 (centres undefined)	1.53
CCC(N)=O	-0.66
Cc1ccccc1OCC(=O)NNC(C)C	1.83
c1ccc2c(c1)Nc1ccccc1S2	4.15
c1cnc2ncncc2n1	-0.58
CC(=O)c1ccc(S(I)=C(N(C)C)N(C)C)cc1 (centres undefined)	-0.85
NC(=O)c1cccc(F)c1	0.91
COC(=O)c1ccccc1S(I)=C(N(C)C)N(C)C (centres undefined)	-0.7
NCCCCNC(=O)c1ccccc1	0.58
CNN	-1.05
CCCCOc1ccc(OC(=O)NC)cc1	2.86
CCN(CC)CCNC(=O)c1cc(I)c(N)cc1OC	3.09
CCCCOc1ccc(C(=O)OCCN(C)C)cc1	3.91

SMILES	logP
O=c1n[n+]([O-])ccn1C1OC(CO)C(O)C1O (centres undefined)	-2.43
COc1cc(C(C)(C)C)c(OC)cc1CC(C)N (centres undefined)	3.91
CC(=O)OCC(=O)[C@@]1(O)CC[C@H]2[C@@H]3CCC4=CC(=O)C=C[C@]4(C)[C@H]3[C@@H](O)C[C@@]21C	2.4
O=[N+]([O-])c1ccc2[nH]nnc2c1	1.95
NS(=O)(=O)c1ccc2c(c1)S(=O)(=O)NCN2	-0.52
OCC1OC(Oc2ccc(Cl)cc2)C(O)C(O)C1O (centres undefined)	0.26
O=C(O)Cn1cccc1	0.7
CCCCCNc1nc(NC)nc(SC(F)F)n1	4.42
O=C(O)CCCOc1ccc(Cl)cc1Cl	3.53
O=C(Nc1ccc(Br)cc1)C(F)(F)F	3.34
CCOc1cn[nH]c1	0.8
CC(=O)OC1(C(=O)CO)CCC2C3CCC4=CC(=O)C=CC4(C)C3C(=O)CC21C (centres undefined)	2.43
CC(=O)c1cccnc1	0.43
Cc1cc(C)c(C)c(C)c1C	4.56
Cc1ccc2ccccc2c1	3.86
CCOP(=O)(OCC)SCSCC	2.07
CCCCCc1cn[nH]c1	2.96
COc1ccc(C(N)=O)cc1	0.86
COP(=O)(C=C(Cl)Cl)OC	1.4
COC(=O)C=Cc1ccccc1	2.62
C[C@]12CC[C@H](O)C[C@H]1CC[C@@H]1[C@@H]2C[C@@H](O)[C@]2(C)[C@@H](C3=CC(=O)OC3)CC[C@]12O	1.1
CCCCOc1ccc(C(=O)O)cc1	3.57
Cn1ccnc1	-0.06
CCCC(=O)OC	1.29
CCOC(=O)CBr	1.12

SMILES	logP
NC(=O)c1cnccn1	-0.6
CC(=O)N[C@@H](CC(C)C)C(=O)N[C@H](C(N)=O)C(C)C (Ac-Leu-Val-NH2)	0.26
CCOC(=O)C(C(=O)OCC)=C(C(=O)OCC)C(=O)OCC	2.63
CCCCOc1cccc(O)c1	3.03
BrCCc1ccccc1	3.09
CCCCCl	2.64
CCCC(=O)OCC(O)CO (centres undefined)	-0.17
Oc1c(Cl)c(Cl)cc(Cl)c1Cl	3.88
COc1ccc(N=NN(C)C)cc1	2.99
Cc1ccc(C(=O)NN)cc1	0.72
C/C=N/O	-0.13
O=[N+]([O-])c1nccn1CC(F)(F)CO	0.04
CC(C)CC(=O)NN	-0.31
CC(C)C(=O)Nc1ccccc1	1.95
CCOP(=O)(NC(C)C)Oc1ccc(SC)c(C)c1 (centres undefined)	3.23
CC(=O)CCC(=O)O	-0.49
COc1ccccc1NCCO	1.5
COc1ccc(C=C(C(C)=O)C(C)=O)cc1	1.73
Nc1ccc(Cl)cc1C(=O)O	1.57
CCC(C)C(NC(=O)C(CC(N)=O)NC(C)=O)C(N)=O (stereo not drawn) (Ac-Asn-Ile-NH2; configuration not given here)	-1.43
CCc1ccccc1OCC(=O)O	2.53
c1ccc(-c2ccc3ccccc3n2)cc1	3.9
COC(=O)CCC(NC(=O)c1ccc(N(C)Cc2cnc3nc(N)nc(N)c3n2)cc1)C(=O)OC (centres undefined)	0.54
C=CC(=O)OCC	1.32
CCCc1ccccc1O	2.93

SMILES	logP
Cc1[nH]cnc1CSCCNc1ncc(Cc2ccc3c(c2)OCO3)c(=O)[nH]1	2.11
C=C(C)C(=O)OCC(C)C	2.66
CN(Cc1ccccc1)c1ccccc1	4.22
CCCCOc1cccnn1	1.8
O=C(O)C1Cc2cc(Cl)ccc2O1 (centres undefined)	2.11
N#Cc1ccc(NC=O)cc1	1.08
CCCCCCOC(N)=O	1.85
CNC(=O)Oc1cc(C)ccc1C(C)(C)C	3.14
Nc1ccccc1I	2.32
COc1cc(CCN)cc(OC)c1Br	2.03
Clc1ccc(-c2cc(Cl)c(Cl)cc2Cl)cc1Cl	7.12
Brc1ccc2ncccc2c1	2.83
CCCC[n+]1ccccc1.[Br-]	-2.69
Cn1c([N+](=O)[O-])cnc1-c1nc2ccccc2n1CCCN1CCOCC1	1.8
COc1ccc(C(=O)N(C)C)cc1	0.96
CCBr	1.61
Cc1cc(=O)[nH]o1	0.46
N#CC(C#N)=NNc1ccccc1	2.67
C1OCOCO1	-0.43
NC(=O)Nc1ccc(Cl)cc1	1.8
O=Ic1ccccc1	-1.61
CC(=O)Nc1ccccc1[N+](=O)[O-]	1
CCCOC(=O)c1ccc(S(N)(=O)=O)cc1	1.75
O=C(O)c1ccc([N+](=O)[O-])cc1Cl	2.03
Cc1ccc(S(=O)(=O)F)cc1	2.74

SMILES	logP
CC(=O)Oc1ccccc1C(C)C	2.78
C=C(C)[C@H]1Cc2c(ccc3c2O[C@@H]2COc4cc(OC)c(OC)cc4[C@@H]2C3=O)O1	4.1
CC1OC(OC2CCC3(CO)C4CCC5(C)C(C6=CC(=O)OC6)CCC5(O)C4CCC3(O)C2)C(O)C(O)C1O (centres undefined)	-0.62
CCCCCOc1cccc(O)c1	3.63
Nc1ccc(CCO)cc1	0.1
CN(C)CC(O)c1ccccc1 (centres undefined)	1.54
O=Cc1ccncc1	0.43
c1ccc(N2CCCC2)cc1	3.56
Nc1nncs1	-0.57
O=C(O)c1c(Cl)cccc1Cl	2.23
CC(C)N	0.26
Cc1cc(C)c(C)cc1C	4
O=C1C(=O)c2ccccc2-c2ccccc21	2.52
CN(C)C(N(C)C)=S(I)c1cc(Cl)cc(Cl)c1 (centres undefined)	0.52
Nc1ccccc1	0.9
O=c1[nH]cc(Br)c(=O)[nH]1	-0.21
COc1ccc2ncccc2c1	2.2
NCCCN1CCN(CCCN)CC1	-1.43
C=CCC(NC(C)=O)C(N)=O (centres undefined)	-0.86
O=C(CC(=O)C(F)(F)F)c1cccs1	1.46
O=C(OCCc1ccccc1)c1ccccc1	4.01
Nc1ccc(S(=O)(=O)Nc2ccccc2Cl)cc1	2
CCCCC(=O)O[C@]1(C(=O)CO)[C@@H](C)C[C@H]2[C@@H]3CCC4=CC(=O)C=C[C@]4(C)[C@@]3(F)[C@@H](O)C[C@@]21C	3.6
Clc1cc(Cl)c2c(Cl)ccc(Cl)c2c1	5.76
COC(=O)c1ccc(-c2ncc([N+](=O)[O-])n2C)cc1	1.63

SMILES	logP
N=C(N)NC(=O)Nc1ccc(Cl)cc1	1.78
CCCCOC	1.66
CC(C)S[C@@H]1O[C@H](CO)[C@H](O)[C@H](O)[C@H]1O	-1.26
CC(=O)c1cccs1	1.25
Cc1cc(Cl)c(N=C2NCCN2)c(Cl)c1	1.92
CC(C)COC(=O)c1cc(O)c(O)c(O)c1	2.46
CCCOC(=O)c1ccc(N)cc1	2.43
Cc1ccc2cccc(C)c2c1	4.44
c1ccc2c(c1)ccc1ccccc12	4.46
CN(C)C(=O)Nc1cccc(F)c1	1.37
CNC(=O)Oc1ccc(C=O)cc1	0.99
O=[N+]([O-])c1nccn1CCO	-0.47
C=C(C)CC1(CC)C(=O)NC(=S)NC1=O	2.19
CN(C)N=Nc1cccc2oc3ccccc3c12	4.55
S=c1[nH]c2ccccc2[nH]1	1.66
Cn1cc(C(=O)O)c2ccccc21	2
CN1C(=O)CN=C(c2ccccc2F)c2cc(Cl)ccc21	2.75
Nc1cc(Cl)cc(Cl)c1	2.9
O=C(Nc1ncnc2c1ncn2[C@@H]1O[C@H](CO)[C@@H](O)[C@H]1O)c1ccccc1	-0.1
